HELM strings list units from the 5' end as sugar, base in round brackets, then linkage (d deoxyribose, r ribose, m 2'-O-methyl, p phosphodiester). Strings are as the collection lists them, not checked against the first reports. ss, as = sense and antisense strand; [lna] = locked nucleic acid (LNA); [hna] = hexitol nucleic acid; [s4r] = 4'-thioribose; [fl2r] = 2'-fluoro
Note: test system not given here.

The conditions of this data set: siRNA.
Substance “RNA1{[fl2r](G)p.r(A)p.[fl2r](C)p.r(C)p.[fl2r](A)p.r(C)p.[fl2r](G)p.r(A)p.[fl2r](A)p.r(G)p.[fl2r](A)p.r(G)p.[fl2r](U)p.r(U)p.[fl2r](A)p.r(A)p.[fl2r](C)p.r(C)p.[fl2r](C)p.r(T)p.r(T)}|RNA2{r(G)p.r(G)p.r(G)p.r(U)p.r(U)p.r(A)p.r(A)p.r(C)p.r(U)p.r(C)p.r(U)p.r(U)p.r(C)p.r(G)p.r(U)p.r(G)p.r(G)p.r(U)p.r(C)p.r(T)p.r(T)}$$$RNA1{StrandType:ss}|RNA2{StrandType:as}$” showed a target mRNA knockdown of 51%.
“RNA1{r(A)p.r(C)p.r(A)p.r(U)p.r(A)p.r(G)p.r(A)p.r(G)p.r(G)p.r(A)p.r(A)p.r(G)p.r(A)p.r(C)p.r(G)p.r(C)p.r(G)p.r(G)p.r(A)p.r(T)p.r(T)}|RNA2{r(U)p.r(C)p.r(C)p.r(G)p.r(C)p.r(G)p.r(U)p.r(C)p.r(U)p.r(U)p.r(C)p.r(C)p.r(U)p.r(C)p.[fl2r](U)p.r(A)p.r(U)p.r(G)p.r(U)p.r(T)p.r(T)}$$$RNA1{StrandType:ss}|RNA2{StrandType:as}$” showed a target mRNA knockdown of 89%.
The substance “RNA1{m(G)p.r(C)p.m(U)p.r(U)p.m(U)p.r(A)p.m(A)p.r(G)p.m(G)p.r(A)p.m(A)p.r(C)p.m(U)p.r(G)p.m(G)p.r(A)p.m(A)p.r(G)p.m(G)p.r(T)p.r(T)}|RNA2{r(C)p.r(C)p.r(U)p.r(U)p.r(C)p.r(C)p.r(A)p.m(G)p.r(U)p.r(U)p.r(C)p.r(C)p.r(U)p.r(U)p.r(A)p.r(A)p.r(A)p.m(G)p.r(C)p.r(T)p.r(T)}$$$RNA1{StrandType:ss}|RNA2{StrandType:as}$” showed a target mRNA knockdown of 51%.
In turn, “RNA1{m(A)p.r(G)p.m(G)p.r(A)p.m(C)p.r(G)p.m(G)p.r(U)p.m(A)p.r(C)p.m(U)p.r(U)p.m(U)p.r(C)p.m(G)p.r(A)p.m(A)p.r(A)p.m(G)p.r(T)p.r(T)}|RNA2{r(C)p.m(U)p.m(U)p.m(U)p.r(C)p.r(G)p.r(A)p.r(A)p.r(A)p.r(G)p.m(U)p.r(A)p.r(C)p.r(C)p.r(G)p.m(U)p.r(C)p.r(C)p.m(U)p.r(T)p.r(T)}$$$RNA1{StrandType:ss}|RNA2{StrandType:as}$” had a target mRNA knockdown of 17%.
Substance “RNA1{r(C)p.r(C)p.r(G)p.r(C)p.r(C)p.r(C)p.r(G)p.r(G)p.r(C)p.r(G)p.r(G)p.r(C)p.r(G)p.r(C)p.r(C)p.r(U)p.r(U)p.r(U)p.m(A)p.r(T)p.r(T)}|RNA2{m(U)p.m(A)p.r(A)p.r(A)p.r(G)p.r(G)p.r(C)p.r(G)p.r(C)p.r(C)p.r(G)p.r(C)p.r(C)p.r(G)p.r(G)p.r(G)p.r(C)p.r(G)p.r(G)p.r(T)p.r(T)}$$$RNA1{StrandType:ss}|RNA2{StrandType:as}$” registered a target mRNA knockdown of 82%.
“RNA1{r(A)p.r(A)p.r(A)p.r(C)p.r(G)p.m(U)p.r(G)p.r(A)p.r(C)p.r(U)p.r(U)p.m(U)p.r(G)p.r(G)p.r(U)p.r(U)p.r(C)p.m(C)p.r(U)p.r(T)p.r(T)}|RNA2{r(A)p.r(G)p.r(G)p.r(A)p.r(A)p.r(C)p.m(C)p.r(A)p.r(A)p.r(A)p.r(G)p.r(U)p.m(C)p.r(A)p.r(C)p.r(G)p.r(U)p.r(U)p.r(U)p.r(T)p.r(T)}$$$RNA1{StrandType:ss}|RNA2{StrandType:as}$” gave a target mRNA knockdown of 82%.
As for “RNA1{r(A)p.r(G)p.r(A)p.r(A)p.r(A)p.r(C)p.r(G)p.m(C)p.r(A)p.r(G)p.m(U)p.r(A)p.r(A)p.r(U)p.r(C)p.r(C)p.r(G)p.r(G)p.r(A)p.r(T)p.r(T)}|RNA2{r(U)p.r(C)p.r(C)p.r(G)p.r(G)p.r(A)p.r(U)p.m(U)p.r(A)p.r(C)p.m(U)p.r(G)p.r(C)p.r(G)p.r(U)p.r(U)p.r(U)p.r(C)p.r(U)p.r(T)p.r(T)}$$$RNA1{StrandType:ss}|RNA2{StrandType:as}$”, the figure is 81%; as for “RNA1{r(U)p.m(U)p.r(A)p.r(A)p.r(G)p.r(G)p.r(A)p.r(G)p.r(A)p.r(A)p.r(G)p.r(C)p.r(U)p.r(G)p.r(A)p.r(C)p.r(G)p.r(G)p.r(C)p.r(T)p.r(T)}|RNA2{r(G)p.r(C)p.r(C)p.r(G)p.r(U)p.r(C)p.r(A)p.r(G)p.r(C)p.r(U)p.r(U)p.r(C)p.r(U)p.r(C)p.r(C)p.r(U)p.m(U)p.r(A)p.r(A)p.r(T)p.r(T)}$$$RNA1{StrandType:ss}|RNA2{StrandType:as}$”, 69%.
Consider “RNA1{r(C)p.r(G)p.r(U)p.r(A)p.r(C)p.r(G)p.r(C)p.r(G)p.r(G)p.r(A)p.r(A)p.r(U)p.r(A)p.[s4r](C)p.[s4r](U)p.[s4r](U)p.[s4r](C)p.[s4r](G)p.[s4r](A)p.r(T)p.r(T)}|RNA2{[s4r](U)p.[s4r](C)p.[s4r](G)p.[s4r](A)p.[s4r](A)p.[s4r](G)p.r(U)p.r(A)p.r(U)p.r(U)p.r(C)p.r(C)p.r(G)p.r(C)p.r(G)p.r(U)p.r(A)p.r(C)p.r(G)p.r(T)p.r(T)}$$$RNA1{StrandType:ss}|RNA2{StrandType:as}$”, for which the target mRNA knockdown was found to be 10.9%.
With “RNA1{r(A)p.r(G)p.r(A)p.r(A)p.r(A)p.r(A)p.r(G)p.r(C)p.r(A)p.r(G)p.r(C)p.r(G)p.r(A)p.m(U)p.r(A)p.r(C)p.r(G)p.r(C)p.r(U)p.r(T)p.r(T)}|RNA2{r(A)p.r(G)p.r(C)p.r(G)p.r(U)p.r(A)p.r(U)p.r(C)p.r(G)p.r(C)p.r(U)p.r(G)p.r(C)p.r(U)p.r(U)p.r(U)p.r(U)p.r(C)p.r(U)p.r(T)p.r(T)}$$$RNA1{StrandType:ss}|RNA2{StrandType:as}$”, the target mRNA knockdown turned out to be 69%.
As to “RNA1{r(C)p.r(G)p.r(U)p.r(A)p.r(C)p.r(G)p.r(C)p.r(G)p.r(G)p.r(A)p.r(A)p.r(U)p.r(A)p.r(C)p.r(U)p.r(U)p.r(C)p.r(G)p.r(A)p.r(T)p.r(T)}|RNA2{[s4r](U)p.[s4r](C)p.r(G)p.r(A)p.r(A)p.r(G)p.r(U)p.r(A)p.r(U)p.r(U)p.r(C)p.r(C)p.r(G)p.r(C)p.r(G)p.r(U)p.r(A)p.[s4r](C)p.[s4r](G)p.r(T)p.r(T)}$$$RNA1{StrandType:ss}|RNA2{StrandType:as}$”, the target mRNA knockdown was 88.8%.
As for “RNA1{m(A)p.r(U)p.m(C)p.r(A)p.m(C)p.r(A)p.m(A)p.r(A)p.m(C)p.r(C)p.m(C)p.r(C)p.m(U)p.r(A)p.m(G)p.r(A)p.m(G)p.r(G)p.m(G)p.r(T)p.r(T)}|RNA2{r(C)p.r(C)p.r(C)p.r(U)p.r(C)p.r(U)p.m(A)p.r(G)p.r(G)p.r(G)p.r(G)p.r(U)p.r(U)p.r(U)p.r(G)p.r(U)p.r(G)p.m(A)p.r(U)p.r(T)p.r(T)}$$$RNA1{StrandType:ss}|RNA2{StrandType:as}$”, the figure is 35%.
On to “RNA1{r(A)p.r(A)p.r(G)p.r(U)p.[fl2r](A)p.r(G)p.r(U)p.r(C)p.r(C)p.r(C)p.r(C)p.r(C)p.r(U)p.r(U)p.r(G)p.r(A)p.r(A)p.r(G)p.r(A)p.r(T)p.r(T)}|RNA2{r(U)p.r(C)p.r(U)p.r(U)p.r(C)p.r(A)p.r(A)p.r(G)p.r(G)p.r(G)p.r(G)p.r(G)p.r(A)p.r(C)p.[fl2r](U)p.r(A)p.r(C)p.r(U)p.r(U)p.r(T)p.r(T)}$$$RNA1{StrandType:ss}|RNA2{StrandType:as}$”, for which the target mRNA knockdown was determined as 69%.
In turn, “RNA1{r(G)p.r(G)p.r(A)p.r(A)p.r(G)p.r(U)p.r(C)p.r(C)p.m(A)p.r(C)p.r(C)p.r(U)p.r(U)p.r(C)p.r(U)p.r(C)p.r(C)p.r(G)p.r(A)p.r(T)p.r(T)}|RNA2{r(U)p.r(C)p.r(G)p.r(G)p.r(A)p.r(G)p.r(A)p.r(A)p.r(G)p.r(G)p.m(U)p.r(G)p.r(G)p.r(A)p.r(C)p.r(U)p.r(U)p.r(C)p.r(C)p.r(T)p.r(T)}$$$RNA1{StrandType:ss}|RNA2{StrandType:as}$” came in with a target mRNA knockdown of 54%.
On to “RNA1{[hna](G)p.[hna](A)p.[hna](C)p.r(G)p.r(U)p.r(A)p.r(A)p.r(A)p.r(C)p.r(G)p.r(G)p.r(C)p.r(C)p.r(A)p.r(C)p.r(A)p.r(A)p.[hna](G)p.[hna](U)p.[hna](U)p.d(T)}|RNA2{r(A)p.m(C)p.r(U)p.r(U)p.r(G)p.r(U)p.r(G)p.r(G)p.r(C)p.r(C)p.r(G)p.r(U)p.r(U)p.r(U)p.r(A)p.r(C)p.r(G)p.r(U)p.r(C)p.r(G)p.r(C)}$$$RNA1{StrandType:ss}|RNA2{StrandType:as}$”, for which the target mRNA knockdown was determined as 84%.
The substance “RNA1{r(A)p.r(C)p.r(C)p.r(U)p.[fl2r](U)p.r(A)p.r(A)p.r(G)p.r(G)p.r(A)p.r(C)p.[fl2r](C)p.[fl2r](A)p.r(C)p.r(C)p.r(G)p.r(G)p.r(A)p.r(U)p.r(T)p.r(T)}|RNA2{r(A)p.r(U)p.r(C)p.r(C)p.r(G)p.r(G)p.[fl2r](U)p.[fl2r](G)p.r(G)p.r(U)p.r(C)p.r(C)p.r(U)p.[fl2r](U)p.[fl2r](A)p.r(A)p.r(G)p.r(G)p.r(U)p.r(T)p.r(T)}$$$RNA1{StrandType:ss}|RNA2{StrandType:as}$” registered a target mRNA knockdown of 70%.
Consider “RNA1{r(C)p.r(G)p.r(A)p.r(C)p.r(G)p.r(A)p.r(U)p.r(U)p.r(C)p.r(U)p.r(U)p.r(C)p.[fl2r](U)p.r(A)p.r(C)p.r(U)p.r(C)p.r(A)p.r(A)p.r(T)p.r(T)}|RNA2{r(U)p.r(U)p.r(G)p.r(A)p.r(G)p.[fl2r](U)p.r(A)p.r(G)p.r(A)p.r(A)p.r(G)p.r(A)p.r(A)p.r(U)p.r(C)p.r(G)p.r(U)p.r(C)p.r(G)p.r(T)p.r(T)}$$$RNA1{StrandType:ss}|RNA2{StrandType:as}$”, for which the target mRNA knockdown stood at 67%.
Take “RNA1{r(G)p.r(A)p.r(C)p.r(G)p.[hna](U)p.r(A)p.r(A)p.[hna](A)p.r(C)p.r(G)p.[hna](G)p.r(C)p.r(C)p.[hna](A)p.r(C)p.r(A)p.r(A)p.r(G)p.[hna](U)p.r(U)p.d(T)}|RNA2{r(A)p.r(C)p.r(U)p.r(U)p.r(G)p.r(U)p.r(G)p.r(G)p.r(C)p.r(C)p.r(G)p.r(U)p.r(U)p.r(U)p.r(A)p.r(C)p.r(G)p.r(U)p.[lna](C)p.[lna](G)p.r(C)}$$$RNA1{StrandType:ss}|RNA2{StrandType:as}$”: the target mRNA knockdown came to 83.9%.
“RNA1{r(U)p.r(U)p.r(U)p.r(C)p.r(A)p.r(C)p.r(U)p.r(A)p.r(C)p.r(U)p.r(C)p.r(C)p.r(U)p.r(A)p.r(C)p.r(G)p.r(A)p.r(G)p.r(C)p.d(T)p.d(T)}|RNA2{r(G)p.r(C)p.r(U)p.r(C)p.r(G)p.r(U)p.r(A)p.r(G)p.r(G)p.r(A)p.r(G)p.r(U)p.r(A)p.r(G)p.r(U)p.r(G)p.r(A)p.r(A)p.r(A)p.d(T)p.d(T)}$$$RNA1{StrandType:ss}|RNA2{StrandType:as}$” came in with a target mRNA knockdown of 0%.
For the substance “RNA1{[s4r](C)p.[s4r](G)p.r(U)p.r(A)p.r(C)p.r(G)p.r(C)p.r(G)p.r(G)p.r(A)p.r(A)p.r(U)p.r(A)p.r(C)p.r(U)p.r(U)p.r(C)p.r(G)p.r(A)p.r(T)p.r(T)}|RNA2{r(U)p.r(C)p.r(G)p.r(A)p.r(A)p.r(G)p.r(U)p.r(A)p.r(U)p.r(U)p.r(C)p.r(C)p.r(G)p.r(C)p.r(G)p.r(U)p.r(A)p.r(C)p.r(G)p.r(T)p.r(T)}$$$RNA1{StrandType:ss}|RNA2{StrandType:as}$”, the target mRNA knockdown was found to be 95.5%.

The values are drawn from the OligoGym collection.
